Laboratory results from patent US11249070B2, “Anti-cancer drug assessment method” (TOPPAN PRINTING CO., LTD., priority 2016, dated 2022).
Like-named read-outs stand apart in the source and are kept apart here.

Columns and labels:
[1] = test system: lung cancer cell line NCI-H820; assay: CNT with oxaliplatin, 2D vs 3D (Example 12); format: cell-based, human; conditions: for CNT (%): 72 hours, measured once
Method: (§1) Measurements were performed once for each culture condition.

[2] = test system: HT29; conditions: oxaliplatin 100 μg/mL, bevacizumab 2 μg per well in combined use, 72 hours
Text: (§2) Furthermore, HT29 cells were used as the cancer cells.
(§3) After the cell structures were each dispersed in the same manner as in Example 2, and the obtained dispersions were stained with trypan blue, the number of viable cancer cells was counted to calculate CNT (%). Measurements were repeated three times for each culture condition.

[3] = test system: HT29; conditions: bevacizumab 2 μg per well in the combination, 72 hours
Text: (§4) The cell structures containing cancer cells and having a vascular network structure used herein were the cell structures produced in Example 5, and the cell culture container, culture media, and bevacizumab used herein were also the same as those used in Example 5.
(§5) After the cell structures were each dispersed in the same manner as in Example 2, and the obtained dispersions were stained with trypan blue, the number of viable cancer cells was counted to calculate CNT (%).

[4] = test system: HT29; conditions: oxaliplatin 100 μg/mL, bevacizumab 2 μg per well in combined use
Method: as §2
Cell structures were produced in the same manner as in Example 5, except that HT29 cells were seeded in a Transwell cell culture insert in which a structure formed from NHDF and HUVEC was formed, centrifugation was performed to remove the liquid component, and the culture time in the CO2 incubator (37° C., 5% CO2) was changed to 24, 48, 72, or 96 hours.
as §3

[5] = test system: HCT116; conditions: bevacizumab 2 μg per well in the combination, 72 hours
Text: as §4, §5

[6] = test system: gastric cancer cell line NCI-N87; assay: CNT with oxaliplatin, 2D vs 3D (Example 13); format: cell-based, human; conditions: for CNT (%): 72 hours, measured once
Method: as §1

[7] = test system: HT29; assay: CNT with doxorubicin, cell structures with or without semipermeable membrane (Example 9); format: cell-based, human; conditions: doxorubicin 10 μM, 72 hours
Text: The cell structures containing a cell layer containing cancer cells and a cell layer having a vascular network structure used herein were cell structures containing a cell layer in which two types of cells, i.e., NHDF and HUVEC, constituted a multilayer, and a cancer cell layer formed from HT29.
Separately, 2×10^4 HT29 was suspended in a suitable amount of culture medium to prepare a cancer cell suspension (step (a)). The HT29 used was previously fluorescently labeled (product number: PKH67GL, produced by SIGMA).
A cell structure 2 was obtained in the same manner as in the cell structure 1, except that a semipermeable membrane with a pore size of 0.4 μm was placed on a structure containing stromal cells, and a cancer cell suspension was seeded on the semipermeable membrane to form a cancer cell layer. […] In the cell structure 2, the cells constituting the cancer cell layer were completely separated from the cells constituting the stromal cell layer.
A cell structure 3 was obtained in the same manner as in the cell structure 1, except that a cancer cell suspension was first seeded in a Transwell cell culture insert to form a cancer cell layer, a semipermeable membrane with a pore size of 0.4 μm was placed on the cancer cell layer, and a stromal cell suspension was then seeded on the semipermeable membrane to form a stromal cell layer. […] In the cell structure 3, the cells constituting the cancer cell layer were completely separated from the cells constituting the stromal cell layer.
A cell structure 4 was obtained in the same manner as in the cell structure 2, except that a semipermeable membrane with a pore size of 8 μm was used. […] In the cell structure 4, the cells constituting the cancer cell layer and the cells constituting the stromal cell layer extended to be in contact with each other in the penetration part of the semipermeable membrane.
A cell structure 5 was obtained in the same manner as in the cell structure 3, except that a semipermeable membrane with a pore size of 8 μm was used. […] In the cell structure 5, the cells constituting the cancer cell layer and the cells constituting the stromal cell layer extended to be in contact with each other in the penetration part of the semipermeable membrane.

[8] = test system: human colon cancer cell line HT29; assay: CNT (remaining viable cell rate) with doxorubicin, 2D cultures vs 3D cell structures (Example 2); format: cell-based; conditions: doxorubicin 10 μM; for CNT (%) Average value: 72 hours
Text: The anti-cancer drug to be assessed was doxorubicin (product number: 046-21523, produced by Wako Pure Chemical Industries, Ltd.).
After termination of the culture, cell structures in which a cancer cell layer was laminated on a layer having a vascular network structure were obtained.
Moreover, for comparison, in place of the above cell structures, structures were constructed by culturing cancer cells so as to form a single layer in a general culture container (2D method), and the resulting 2D cultures were similarly cultured in the presence of doxorubicin. A vascular network was not formed in the obtained 2D cultures even when cancer cells and vascular endothelial cells were made to coexist.
Next, a suitable amount of tris buffer solution (50 mM, pH: 7.4) was added to the Transwell cell culture insert, and the liquid component was then removed. This series of processes was repeated 3 times. […] Thereafter, all of the solution was collected, and transferred to a 1.5-mL collection tube to which 300 μL of 0.25% trypsin-EDTA solution (produced by Invitrogen) had been previously added. […] Thereafter, all of the solution was collected, and transferred to a 1.5-mL collection tube.

[9] = test system: HT29; assay: CNT with doxorubicin, vascular network in layer shape vs scattered (Example 3); format: cell-based, human; conditions: doxorubicin 10 μM, 72 hours
[10] = test system: breast cancer cell line MCF-7; assay: CNT with doxorubicin, 2D vs 3D (Example 14); format: cell-based, human; conditions: for CNT (%) Average value: 72 hours
Text: The general cytotoxic anti-cancer drug to be assessed was doxorubicin (product number: 046-21523, produced by Wako Pure Chemical Industries, Ltd.).

[11] = test system: HT29; assay: CNT with cetuximab and/or bevacizumab, 2D, spheroid, 3D (Example 4); format: cell-based, human; conditions: for CNT (%) Average value / CNT (%) Median value: cetuximab 1 mg/mL and/or bevacizumab 2 μg per well, 72 hours
Text: Moreover, for comparison, in place of the above cell structures, structures were produced by culturing cancer cells so as to form a single layer in a general culture container (2D method), and spheroids were produced by spheroid culture of a mixture of 2×10^6 NHDF, 3×10^4 HUVEC, and 2×10^4 HT29 (spheroid method).

[12] = regardless of the oxaliplatin concentration
[13] = Spheroid, oxaliplatin 100 μg/mL

Question: Which results are given for `O=C1[O][Pt]2([NH][C@@H]3CCCC[C@H]3[NH]2)[O]C1=O` [Oxaliplatin, oxaliplatin]?
Answer: CNT (%) ([1]; 2D, oxaliplatin 1 μg/mL): 62.9%; CNT (%) ([1]; 2D, oxaliplatin 10 μg/mL): 21.0%; CNT (%) ([1]; 3D, oxaliplatin 1 μg/mL): 78.2%; CNT (%) ([1]; 3D, oxaliplatin 10 μg/mL): 66.7%; drug sensitivity, cell structures compared with 2D cultures [1, 12]: drug sensitivity was lower; CNT (%) Average value ([2]; HUVEC content 0.05 %, vascular network not formed): 30.3%; CNT (%) Average value ([2]; HUVEC content 0.25 %, vascular network formed): 33.4%; CNT (%) Average value ([2]; HUVEC content 0.5 %, vascular network formed): 35.7%; CNT (%) Average value ([2]; HUVEC content 1.5 %, vascular network formed): 33.8%; CNT (%) Average value ([3]; 2D, oxaliplatin 10 μg/mL): 39.4%; CNT (%) Average value ([3]; 2D, oxaliplatin 100 μg/mL): 16.0%; CNT (%) Average value ([3]; 3D, oxaliplatin 10 μg/mL): 63.6%; CNT (%) Average value ([3]; 3D, oxaliplatin 100 μg/mL): 31.9%; CNT (%) Average value ([3]; Spheroid, oxaliplatin 10 μg/mL): 48.2%; CNT (%) Average value [3, 13]: 22.3%; CNT (%) Average value ([4]; culture time 24 h after lamination of cancer cell layer, 72 hours): 36.0%; CNT (%) Average value ([4]; culture time 48 h after lamination of cancer cell layer, 72 hours): 36.3%; CNT (%) Average value ([4]; culture time 72 h after lamination of cancer cell layer): 37.0%; CNT (%) Average value ([4]; culture time 96 h after lamination of cancer cell layer, 72 hours): 33.8%; CNT (%) Average value ([5]; 2D, oxaliplatin 10 μg/mL): 23.8%; CNT (%) Average value ([5]; 2D, oxaliplatin 100 μg/mL): 11.3%; CNT (%) Average value ([5]; 3D, oxaliplatin 10 μg/mL): 54.1%; CNT (%) Average value ([5]; 3D, oxaliplatin 100 μg/mL): 35.6%; CNT (%) Average value ([5]; Spheroid, oxaliplatin 10 μg/mL): 51.8%; CNT (%) Average value [5, 13]: 18.8%; CNT (%) ([6]; 2D, oxaliplatin 10 μg/mL): 22.0%; CNT (%) ([6]; 2D, oxaliplatin 100 μg/mL): 10.3%; CNT (%) ([6]; 3D, oxaliplatin 10 μg/mL): 45.9%; CNT (%) ([6]; 3D, oxaliplatin 100 μg/mL): 17.7%; drug sensitivity, cell structures compared with 2D cultures [6, 12]: drug sensitivity was lower

Question: With `COc1cccc2c1C(=O)c1c(O)c3c(c(O)c1C2=O)C[C@@](O)(C(=O)CO)C[C@@H]3O[C@H]1C[C@H](N)[C@H](O)[C@H](C)O1` [Doxorubicin, doxorubicin] as the compound, how does the “CNT (%) Average value” ([7]; Cell structure 1 (stromal cell layer - cancer cell layer)) read?
Answer: 31.22%

Question: And the “CNT (%) Average value” ([7]; Cell structure 2 (stromal cell layer - semipermeable membrane (0.4 μm) - cancer cell layer))?
Answer: 30.83%

Question: And the “CNT (%) Average value” ([7]; Cell structure 3 (cancer cell layer - semipermeable membrane (0.4 μm) - stromal cell layer))?
Answer: 32.68%

Question: What about the “CNT (%) Average value” ([7]; Cell structure 4 (stromal cell layer - semipermeable membrane (8 μm) - cancer cell layer)) of the same compound?
Answer: 31.47%

Question: And the “CNT (%) Average value” ([7]; Cell structure 5 (cancer cell layer - semipermeable membrane (8 μm) - stromal cell layer))?
Answer: 33.03%

Question: What about the “CNT (%) Average value” ([8]; 2D, HT29 2 × 10^4 only) of the same compound?
Answer: 6.87%

Question: What about the “CNT (%) Average value” ([8]; 2D, HUVEC 2 × 10^4 + HT29 2 × 10^4) of the same compound?
Answer: 21.40%

Question: What about the “CNT (%) Average value” ([8]; 2D, NHDF 2 × 10^4 + HT29 2 × 10^4) of the same compound?
Answer: 13.20%

Question: What about the “effectiveness in 2D culture co-cultured with fibroblasts relative to 2D culture co-cultured with vascular endothelial cells” value ([8]; 2D) of the same compound?
Answer: about two

Question: And the “CNT of the cell structures relative to 2D culture” value ([8]; 3D cell structures vs 2D culture of only cancer cells and 2D culture of cancer cells and fibroblasts)?
Answer: at least 5 times

Question: And the “CNT (%) Average value” ([8]; 3D, NHDF 1 × 10^6 + HUVEC 3 × 10^4 + HT29 2 × 10^4)?
Answer: 28.22%

Question: What about the “CNT (%) Average value” ([8]; 3D, NHDF 2 × 10^6 + HT29 2 × 10^4, no vascular network) of the same compound?
Answer: 29.77%

Question: What about the “CNT (%) Average value” ([8]; 3D, NHDF 2 × 10^6 + HUVEC 3 × 10^4 + HT29 2 × 10^4) of the same compound?
Answer: 31.22%

Question: What about the “CNT (%) Average value” ([9]; cell structure in which a vascular network structure is formed in a layer shape) of the same compound?
Answer: 31.22%

Question: What about the “CNT (%) Average value” ([9]; cell structure in which a vascular network structure is scattered in the entire structure) of the same compound?
Answer: 31.06%

Question: What about the “CNT (%) Average value” ([10]; 2D, Doxorubicin 1 μM) of the same compound?
Answer: 38.9%

Question: What about the “CNT (%) Average value” ([10]; 2D, Doxorubicin 10 μM) of the same compound?
Answer: 12.1%

Question: What about the “CNT (%) Average value” ([10]; 3D, Doxorubicin 1 μM) of the same compound?
Answer: 78.4%

Question: What about the “CNT (%) Average value” ([10]; 3D, Doxorubicin 10 μM) of the same compound?
Answer: 48.9%

Question: And the “drug sensitivity, cell structures compared with 2D cultures” value ([10]; regardless of the doxorubicin concentration)?
Answer: drug sensitivity was lower

Question: What does the source list for bevacizumab?
Answer: CNT ([11]; 2D cultures and spheroids): about 100%; CNT (%) Average value ([11]; 2D): 93.9%; CNT (%) Median value ([11]; 2D): 99.3%; CNT (%) Average value ([11]; 3D): 105.2%; CNT (%) Median value ([11]; 3D): 112.7%; CNT (%) Average value ([11]; Spheroid): 108.6%; CNT (%) Median value ([11]; Spheroid): 113.8%; CNT ([11]; cell structures of the present Example, 3D): about 100%
